Patent publication US20110150769A1, “IDENTIFICATION AND USE OF COMPOUNDS FOR TREATING PERSISTENT PAIN” (priority 2009, published 2011)
Entries after “also recorded” stand apart in the source; their conditions may differ.

Columns and labels:
DRG neurons = assay: Calcium imaging of cultured DRG neurons; type: cell-based, mouse
Experimental: Calcium Imaging of Cultured Dorsal Root Ganglia (DRG) Neurons
DRG neurons were plated on poly-D-lysine/laminin-coated coverslips and cultured for 24 hours. […] Briefly, neurons were loaded with Fura 2-acetomethoxy ester (Molecular Probes) for 30 min in dark at room temperature. After washing, neurons were imaged at 340/380 nm excitation to detect intracellular free calcium. All tests were performed with an experimenter blinded to the genotype.

[1] = test system: chronic constriction injury model of neuropathic pain in mice; assay: CCI-induced mechanical allodynia (von Frey test) after intrathecal injection; type: in vivo, mouse; settings: 0.5 mM, 5 μl i.th.
From the text: A chronic constriction injury (CCI) at the left sciatic nerve was induced in adult male mice. Inhalation anesthesia was induced with a constant level of isoflurane (2.0%) delivered through a nose cone. Under aseptic conditions, the left sciatic nerve at the middle thigh level was separated from the surrounding tissue and loosely tied with three nylon sutures (9-0 nonabsorbable-monofilament, S&T AG, Neuhausen, Switzerland). The distance between two adjacent ligatures was around 0.5 mm.
CCI-induced mechanical allodynia: mechanical sensitivity was assessed with the von Frey test using the frequency method. Two calibrated von Frey monofilaments (low force: 0.07 g and high force: 0.45 g) were used. Each von Frey filament was applied perpendicularly to the plantar side of each hind paw for approximately 1 sec; the stimulation was repeated 10 times to both hind paws. The occurrence of paw withdrawal in each of these 10 trials was expressed as a percent response frequency: paw withdrawal frequency (PWF)=(number of paw withdrawals/10 trials)×100%.
BAM 8-22 was purchased from Tocris (Bristol, UK) and was suspended in 0.9% saline. The drug was injected intrathecally under brief isoflurane (1.5%) anesthesia to reduce stress. […]

rat MrgprC = biological target: T1, rat MrgprC (Rattus norvegicus, UniProt Q8R4G1); settings: Han et al, 2002, Lembo et al.; cited from earlier work
T1 sequence (Q8R4G1 1-323): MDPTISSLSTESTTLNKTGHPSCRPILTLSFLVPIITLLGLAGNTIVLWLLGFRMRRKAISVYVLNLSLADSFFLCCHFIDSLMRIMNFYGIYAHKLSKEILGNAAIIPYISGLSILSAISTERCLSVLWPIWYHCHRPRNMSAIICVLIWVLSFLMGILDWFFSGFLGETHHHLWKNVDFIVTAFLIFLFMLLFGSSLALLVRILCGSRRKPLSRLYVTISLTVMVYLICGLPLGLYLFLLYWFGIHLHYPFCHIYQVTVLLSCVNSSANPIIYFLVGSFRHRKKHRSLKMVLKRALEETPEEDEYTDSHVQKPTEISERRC

human MrgprX1 = human MrgprX1 (Homo sapiens, UniProt Q96LB2); settings: literature; cited from earlier work
Sequence of human MrgprX1 (Q96LB2 whole entry): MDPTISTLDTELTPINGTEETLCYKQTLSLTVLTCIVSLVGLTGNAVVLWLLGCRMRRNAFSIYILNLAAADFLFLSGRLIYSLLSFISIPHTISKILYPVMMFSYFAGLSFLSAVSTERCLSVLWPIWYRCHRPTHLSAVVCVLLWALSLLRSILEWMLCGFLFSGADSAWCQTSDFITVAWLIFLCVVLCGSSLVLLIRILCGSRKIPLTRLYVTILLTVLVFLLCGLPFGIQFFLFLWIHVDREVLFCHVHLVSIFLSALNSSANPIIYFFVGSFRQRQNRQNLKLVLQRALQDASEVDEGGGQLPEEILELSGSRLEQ

BAM 8-22
responses in DRG neurons (DRG neurons; adult mutant (Mrgpr-clusterΔ−/−) DRG neurons): no responses
percentage of DRG neurons responding, WT vs MrgprA1GFP/GFP mice (DRG neurons; comparison of WT and MrgprA1GFP/GFP mice): did not differ significantly
responses in DRG neurons (DRG neurons; newborn Mrgpr-clusterΔ−/− mice): few or no responses
CCI-induced mechanical pain hypersensitivity (paw withdrawal frequency), ipsilateral hind paw ([1]; WT mice, low-force 0.07 g and high-force 0.45 g, 14-18 days post-injury, after 30 min): significantly attenuated; also recorded: significantly reduced
paw withdrawal responses (PWF) of the contralateral, uninjured side ([1]; either group): did not significantly change; also recorded: did not significantly reduce
activation of rat MrgprC (rat MrgprC): specifically activates
activation of human MrgprX1 (human MrgprX1): specifically activates
